Measured values published in US6221901A, “Magnesium (-)hydroxycitrate, method of preparation, applications, and compositions in particular pharmaceutical containing same” (priority 1996, dated 2001).
Where two headings read alike, the source gives them in different places.

Experiments:
[1] = literature, Majeed et al. 1994; in words; cited from earlier work
[2] = system: rat arterial smooth muscle cells; assay: Accumulation of intracellular lipids in arterial smooth muscle cells; format: cell-based; details: for Reduction in percentages: accumulation of lipids: in culture medium: (-)hydroxycitrate 0.1 mM, silicon 0.036 mM, magnesium 0.1 mM
Protocol: (§1) 1) Study of the Mortality of Human Epithelial Cells and of Rat Arterial Smooth Muscle Cells.
(§2) The inhibitory effects of these compounds on the proliferation of arterial smooth muscle and on the accumulation of intracellular lipids was also tested using the method described by Shrivastava et al. in Meth. Find. Exp. Clin. Pharmacol. 15 (6), pages 345-350, 1993.
(§3) The various products were respectively tested at the following concentrations: […]

[3] = system: human epithelial cells and rat arterial smooth muscle cells; assay: Mortality of human epithelial cells and of rat arterial smooth muscle cells (antioxidant effect, model of oxygen toxicity); format: cell-based; details: for protective effect on cell mortality: result in words; for Reduction in percentages: cell mortality: in culture medium: (-)hydroxycitrate 0.1 mM, silicon 0.036 mM, magnesium 0.1 mM
Protocol: as §1
The antioxidant effects of (-)hydroxycitrate and of different minerals were tested according to the protocol described by Michiels et al: "A new experimental model to study oxygen toxicity", Arch. int. Physiol. Biochem. 94 (5), S13-S18, 1986, using rat hepatocytes, as well as human epithelial cells and rat arterial smooth muscle cells.
as §3

[4] = system: rat arterial smooth muscle cells; assay: Proliferation of arterial smooth muscle cells; format: cell-based; details: for Reduction in percentages: proliferation of cells: in culture medium: (-)hydroxycitrate 0.1 mM, silicon 0.036 mM, magnesium 0.1 mM
Protocol: as §1, §2, §3

[5] = system: hypercholesterolemic rabbits; assay: Effect in vivo on the cholesterol level in hypercholesterolemic rabbits; set-up: species or system rabbit; details: 750 mg/kg oral
Protocol: (§4) 2) Study of the Effect in vivo on the Cholesterol Level and on Lipidic Deposits in Hypercholesterolemic Rabbits.
(§5) Two batches of 20 male rabbits (Elevage scientifique des Dombes: 2.5-3 kg) received a cholesterol-rich food (1%) for a period of 8 weeks. The first batch were not treated and therefore served as a control while the second batch received 750 mg/kg of magnesium (-)hydroxycitrate by oral route.

[6] = system: hypertensive rat; assay: Anti-hypertensive activity in the hypertensive rat; format: in vivo; details: 500 mg/kg/day oral, one week, vs untreated controls
Protocol: 4) Study of Anti-hypertensive Activity in the Hypertensive Rat
Magnesium (-)hydroxycitrate was tested on 12 hypertensive rats. A batch of 12 other hypertensive rats was used as a control batch. An average reduction in arterial pressure of 17%±3% with respect to the controls (untreated) was noted after one week of treatment at a rate of 500 mg per kilogram per day by oral route.

[7] = system: hypercholesterolemic rabbit; format: in vivo
Protocol: 3) Study of Antiatherosclerotic Effects in the Hypercholesterolemic Rabbit.
Two batches of 15 male rabbits (Elevage scientifique des Dombes: 2.5-3 kg) received a cholesterol-rich food: 0.2% for the period D+8 to D+37, then 1% until D+69, when the animals are sacrificed.
The first batch was not treated and therefore served as a control while the second batch received 500 mg/kg of magnesium (-)hydroxycitrate by oral route.

[8] = in vivo; details: rat
Text: The toxicity of magnesium (-)hydroxycitrate is greater than 2 g/kg by intraperitoneal route or than 7 g/kg per os in the rat. That of metals, in particular in the form of salts or mineral oxides (frequently administered as trace elements) is well known.

[9] = system: wall of the aorta, hypercholesterolemic rabbits; assay: Lipidic deposits on the wall of the aorta in hypercholesterolemic rabbits; format: in vivo, rabbit; details: 750 mg/kg oral
Protocol: as §4, §5

[10] = result in words, with respect to (-)hydroxycitrate or magnesium
[11] = 500 mg/kg/day oral, 62 days, vs controls

For O=C(O)CC(O)(C(=O)O)C(O)C(=O)O (single isomer, unassigned; (-)) [(-)hydroxycitrate, (-)hydroxycitric acid], the body weight [1] is listed as “reduces body weight”, the “Reduction in percentages: accumulation of lipids” value [2] is listed as 16 (±3) % and the “protective effect on cell mortality” value [3] is listed as “no protective effect on cell mortality”. The “Reduction in percentages: proliferation of cells” value [4] was 6 (±4) %.

For O=C(O)C[C@@](O)(C(=O)O)[C@H](O)C(=O)O [Magnesium (-)hydroxycitrate, magnesium (-)hydroxycitrate], the “HDL's, variation” value ([5]; 4 weeks, vs controls) was “+8.5%”, the “LDL's, variation” value ([5]; 4 weeks, vs controls) was -22.4% and the “Total cholesterol, variation” value ([5]; 4 weeks, vs controls) was -19.5%. The “Total cholesterol/HDL ratio, variation” value ([5]; 4 weeks, vs controls) was -28.2%, the “HDL's, in words” value ([5]; after 4 weeks) was “increase in HDL's” and the “LDL's, in words” value ([5]; after 4 weeks) was “reduction in LDL's”. The “HDL's” value ([5]; after 4 weeks of treatment) was 0.246 g/L, the “LDL's” value ([5]; after 4 weeks of treatment) was 4.00 g/L and the Total cholesterol ([5]; after 4 weeks of treatment) was 4.47 g/L. The “Total cholesterol/HDL ratio” value ([5]; after 4 weeks of treatment) was 19.22, the “Reduction in percentages: accumulation of lipids” value [2] was 81 (±13) % and the “effect on accumulation of lipids” value [2, 10] was “very significant increase in the effects”. For the same compound, the “average reduction in arterial pressure” value [6] was 17%±3%, the “protective effect on cell mortality” value [3] was “more protective effect” and the “Reduction in weight of spleen” value ([7]; 500 mg/kg/day oral, 62 days) was -20.3%. The “Reduction in weight of surrenal glands” value ([7]; 500 mg/kg/day oral, 62 days) was -21.6%, the “Reduction in lipidic deposits on the aortic vascular wall” value ([7]; 500 mg/kg/day oral, 62 days, vs control batch) was 46.3% and the “Reduction in the total cholesterol level” value [7, 11] was -13.75%. For the same compound, the “Reduction in the total cholesterol/HDL ratio” value [7, 11] was -25.72%, the “increase in HDL levels” value [7, 11] was “+12.5%” and the “Reduction in LDL's” value ([7]; 500 mg/kg/day oral, 62 days, vs controls, given without sign) was 16.36%. The “weight of heart, liver” value ([7]; 500 mg/kg/day oral, 62 days, in words) was “Reduction in weight of heart, liver”, the “overall effect on the hypercholesterolemic rabbit” value ([7]; non-cytotoxic doses, in words) was “hypocholesterolemia and anti-atherosclerotic effect” and the “Reduction in percentages: proliferation of cells” value [4] was 48 (±8) %. The “effect on cell proliferation” value [4, 10] was “very significant increase in the effects”, the LD50 ([8]; ip, intraperitoneal, read-out: toxicity, intraperitoneal route) was over 2000 mg/kg and the LD50 ([8]; po, per os, read-out: toxicity, per os) was over 7000 mg/kg. The “number of lipidic deposits, aortic arch, week 4” value ([9]; 4 weeks) was 3.5, the “number of lipidic deposits, thoracic arch, week 4” value ([9]; 4 weeks) was 0.0 and the “number of lipidic deposits, aortic arch, week 8” value ([9]; 8 weeks) was 1.5. The “number of lipidic deposits, thoracic arch, week 8” value ([9]; 8 weeks) was 0.0, the “number of lipidic deposits, in words” value ([9]; after 4 weeks and after 8 weeks) was “reduction in the number of lipidic deposits” and the “number of lipidic deposits, total” value ([9]; sum of aortic and thoracic arch, weeks 4 and 8) was 5.0. The “lipidic deposits, total, Variation %” value ([9]; vs controls) was -80.4%.

For Magnesium, the “Reduction in percentages: accumulation of lipids” value [2] was 20 (±9) %, the “Reduction in percentages: cell mortality” value [3] was 6 (±3) % and the “protective effect on cell mortality” value [3] was “reduces this mortality very slightly”. For the same compound, the “Reduction in percentages: proliferation of cells” value [4] was 2 (±2) %.

In the case of Silicon, the “Reduction in percentages: accumulation of lipids” value [2] is reported as 32 (±5) %, the “Reduction in percentages: cell mortality” value [3] is reported as 28 (±7) % and the “Reduction in percentages: proliferation of cells” value [4] is reported as 28 (±6) %.
